The target of the first test is T1, TAAR1 (Mus musculus, UniProt Q923Y8).
T1 construct: expressed in transfected cells; host or cells: HEK293 (ATCC # CRL-1573), stably transfected with pIRESneo2 expression plasmid; membranes prepared
T1 sequence (Q923Y8 whole entry): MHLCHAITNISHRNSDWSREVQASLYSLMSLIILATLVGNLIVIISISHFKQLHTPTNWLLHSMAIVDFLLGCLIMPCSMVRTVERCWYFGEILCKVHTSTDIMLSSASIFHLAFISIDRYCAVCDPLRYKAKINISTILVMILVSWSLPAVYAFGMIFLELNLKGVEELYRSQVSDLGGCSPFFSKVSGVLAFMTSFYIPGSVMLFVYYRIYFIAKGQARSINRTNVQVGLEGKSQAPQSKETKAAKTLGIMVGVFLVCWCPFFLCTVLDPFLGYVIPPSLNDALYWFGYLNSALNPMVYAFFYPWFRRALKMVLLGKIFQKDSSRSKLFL
Kind of test: TAAR1 radioligand binding assay on membranes of stably transfected HEK293 cells.
Details: not given
The protocol: The ability of the compounds of the present invention to bind to TAAR 1 was investigated in accordance with the test given hereinafter.
The Expand High Fidelity PCR System (Roche Diagnostics) was used with 1.5 mM Mg^2+ and purified PCR products were cloned into pCR2.1-TOPO cloning vector (Invitrogen) following the instructions of the manufacturer. PCR products were subcloned into the pIRESneo2 vector (BD Clontech, Palo Alto, Calif.), and expression vectors were sequence verified before introduction in cell lines.
For the generation of stably transfected cell lines HEK293 cells were transfected with the pIRESneo2 expression plasmids containing the TAAR coding sequences (described above) with Lipofectamine 2000 (Invitrogen) according to the instructions of the manufacturer, and 24 hours post transfection the culture medium was supplemented with 1 mg/ml G418 (Sigma, Buchs, Switzerland). After a culture period of about 10 days, clones were isolated, expanded and tested for responsiveness to trace amines (all compounds purchased from Sigma) with the cAMP Biotrak Enzyme immunoassay (EIA) System (Amersham) following the non-acetylation EIA procedure provided by the manufacturer.
Cells at confluence were rinsed with ice-cold phosphate buffered saline without Ca^2+ and Mg^2+ containing 10 mM EDTA and pelleted by centrifugation at 1000 rpm for 5 min at 4° C. The pellet was then washed twice with ice-cold phosphate buffered saline and cell pellet was frozen immediately by immersion in liquid nitrogen and stored until use at −80° C. The cell pellet was then suspended in 20 ml HEPES-NaOH (20 mM), pH 7.4 containing 10 mM EDTA, and homogenized with a Polytron (PT 3000, Kinematica) at 10,000 rpm for 10 seconds. The homogenate was centrifuged at 48,000×g for 30 minutes at 4° C. and the pellet resuspended in 20 ml HEPES-NaOH (20 mM), pH 7.4 containing 0.1 mM EDTA (buffer A), and homogenized with a Polytron at 10,000 rpm for 10 seconds. The homogenate was then centrifuged at 48,000×g for 30 minutes at 4° C. and the pellet resuspended in 20 ml buffer A, and homogenized with a Polytron at 10,000 rpm for 10 seconds. Protein concentration was determined by the method of Pierce (Rockford, Ill.). The homogenate was then centrifuged at 48,000×g for 10 minutes at 4° C., resuspended in HEPES-NaOH (20 mM), pH 7.0 including MgCl2 (10 mM) and CaCl2 ([…]) (buffer B) at 200 μg protein per ml and homogenized with a Polytron at 10,000 rpm for 10 seconds.
Binding assay was performed at 4° C. in a final volume of 1 ml, and with an incubation time of 30 minutes. […] Non-specific binding was defined as the amount of [^3H]-rac-2-(1,2,3,4-tetrahydro-1-naphthyl)-2-imidazoline bound in the presence of the appropriate unlabelled ligand (10 μM). Competing ligands were tested in a wide range of concentrations (10 pM-30 μM). […] Each experiment was performed in duplicate. All incubations were terminated by rapid filtration through UniFilter-96 plates (Packard Instrument Company) and glass filter GF/C, pre-soaked for at least 2 h in polyethylenimine 0.3%, and using a Filtermate 96 Cell Harvester (Packard Instrument Company). The tubes and filters were then washed 3 times with 1 ml aliquots of cold buffer B. Filters were not dried and soaked in Ultima gold (45 μl/well, Packard Instrument Company) and bound radioactivity was counted by a TopCount Microplate Scintillation Counter (Packard Instrument Company).
In general, Ki refers to a measure of affinity in units of concentration, obtained from inhibition or displacement. As to `C[C@@H]1c2ccccc2N(Cc2ncc[nH]2)[C@@H]1C` (racemic) [Example 14, (2RS,3RS)-1-(1H-Imidazol-2-ylmethyl)-2,3-dimethyl-2,3-dihydro-1H-indole], the Ki was 0.196 µM.

Compound `Cc1cccc2c1CCN2Cc1ncc[nH]1` [Example 33, 1-(1H-Imidazol-2-ylmethyl)-4-methyl-2,3-dihydro-1H-indole] showed a Ki of 0.125 µM.

In turn, `Clc1ccc2c(c1)N(Cc1ncc[nH]1)CC2` [Example 16, 6-Chloro-1-(1H-imidazol-2-ylmethyl)-2,3-dihydro-1H-indole] had a Ki of 0.035 µM.

Compound `c1ccc(Oc2cccc3c2CCCN3Cc2ncc[nH]2)cc1` [Example 42, 1-(1H-Imidazol-2-ylmethyl)-5-phenoxy-1,2,3,4-tetrahydro-quinoline] came in with a Ki of 0.0046 µM.

Compound `CCc1cccc2c1N(Cc1ncc[nH]1)CC2` [Example 15, 7-Ethyl-1-(1H-imidazol-2-ylmethyl)-2,3-dihydro-1H-indole] displayed a Ki of 0.0435 µM.

`Clc1cccc2c1CCN2Cc1ncc[nH]1` [Example 17, 4-Chloro-1-(1H-imidazol-2-ylmethyl)-2,3-dihydro-1H-indole] registered a Ki of 0.0362 µM.

`c1ccc2c(c1)CCN2Cc1ncc[nH]1` [Example 1, 1-(1H-Imidazol-2-ylmethyl)-2,3-dihydro-1H-indole] displayed a Ki of 0.0289 µM.

As for `COc1cccc2c1CCN2Cc1ncc[nH]1` [Example 23, 1-(1H-Imidazol-2-ylmethyl)-4-methoxy-2,3-dihydro-1H-indole], the Ki turned out to be 0.115 µM.

In turn, `COc1cccc2c1N(Cc1ncc[nH]1)CC2` [Example 20, 1-(1H-Imidazol-2-ylmethyl)-7-methoxy-2,3-dihydro-1H-indole] registered a Ki of 0.118 µM.

Compound `Brc1ccc2c(c1)CCN2Cc1ncc[nH]1` [Example 4, 5-Bromo-1-(1H-imidazol-2-ylmethyl)-2,3-dihydro-1H-indole] registered a Ki of 0.055 µM.

Regarding `Cc1cccc2c1N(Cc1ncc[nH]1)CC2` [Example 32, 1-(1H-Imidazol-2-ylmethyl)-7-methyl-2,3-dihydro-1H-indole], the Ki worked out at 0.173 µM.

The test is the same for the next values; noted with them: mouse TAAR1; radioligand [3H]-rac-2-(1,2,3,4-tetrahydro-1-naphthyl)-2-imidazoline at 60 nM; 4° C., 30 minutes; read-out: Ki (μM) mouse.
In the case of `Cc1ccc2c(c1)N(Cc1ncc[nH]1)CC2` [Example 26, 1-(1H-Imidazol-2-ylmethyl)-6-methyl-2,3-dihydro-1H-indole], the Ki was 0.129 µM.

In the case of `Clc1cccc2c1N(Cc1ncc[nH]1)CC2` [Example 24, 7-Chloro-1-(1H-imidazol-2-ylmethyl)-2,3-dihydro-1H-indole], the Ki is 0.0557 µM.

On to `Brc1ccc2c(c1)CCCN2Cc1ncc[nH]1` [Example 25, 6-Bromo-1-(H-imidazol-2-ylmethyl)-1,2,3,4-tetrahydro-quinoline], for which the Ki stood at 0.0951 µM.

`c1ccc(COc2cccc3c2CCCN3Cc2ncc[nH]2)cc1` [Example 38, 5-Benzyloxy-1-(1H-imidazol-2-ylmethyl)-1,2,3,4-tetrahydro-quinoline]: the Ki worked out at 0.0513 µM.

The same test, now with this note: radioligand binding to TAAR1 membranes; species not stated; read-out: calculated Kd value of the radioligand.
In general, Kd refers to the concentration at which binding is half-saturated. In the case of `c1ccc2c(c1)CCCC2C1=NCCN1` (racemic) [[^3H]-rac-2-(1,2,3,4-tetrahydro-1-naphthyl)-2-imidazoline, reference compound], the Kd is 60 nM.

(Values after patent US7834044B2, “Substituted-2-imidazoles” (Hoffman-LaRoche Inc., priority 2006, dated 2010).)
